Test results: patent publication US20060148712A1, “Monocyte chemoattractant activity of galectin-3” (priority 2000, published 2006)

Assays:
[1] = tested on: cell recruitment into mouse air pouches; test: Migration assay in vivo (mouse air pouch); set-up: species or system Balb/c mice
Protocol: The mouse air pouch experiments were performed according to a method described previously (Perretti, et al., J. Immunol. 151:4306-14 (1993)). Briefly, an air pouch was induced on the back of Balb/c mice by injecting 3 ml of air intradermally 2, 4, and 6 days before the experiments. Then, 1 ml of 0.9% sodium chloride (USP grade saline, Baxter Healthcare Corporation, Deerfield, Ill.) containing 1 μM galectin-3 was injected into the pouch. As positive and negative controls, 100 ng/ml of recombinant MCP-1 and diluent only, respectively, were injected. Four h afterwards, recruited cells were recovered by gently lavaging the pouch with 1 ml of PBS containing 1 mM EDTA. Cell number was determined and the distribution of leukocyte types was analyzed after cytospin preparation and Wright staining.

CCR-5 = target: T1, CCR-5 (Homo sapiens, UniProt P51681); test: Immunoprecipitation and immunoblotting with specific antibodies; type: binding
T1 construct: Chemokine receptors expressed on monocytes include CCR-1, CCR-2, CCR-5, and CXCR-4; endogenous in cells
T1 sequence (P51681 whole entry): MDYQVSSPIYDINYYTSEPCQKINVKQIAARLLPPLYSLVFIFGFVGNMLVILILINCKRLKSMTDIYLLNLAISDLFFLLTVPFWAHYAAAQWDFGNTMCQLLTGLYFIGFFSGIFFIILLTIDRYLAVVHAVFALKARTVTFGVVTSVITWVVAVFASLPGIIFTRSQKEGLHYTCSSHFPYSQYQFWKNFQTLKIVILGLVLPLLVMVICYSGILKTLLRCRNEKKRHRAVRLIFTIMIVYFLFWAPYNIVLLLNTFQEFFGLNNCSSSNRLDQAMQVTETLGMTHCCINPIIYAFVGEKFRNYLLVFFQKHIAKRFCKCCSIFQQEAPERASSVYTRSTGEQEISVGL

[2] = 1 μM galectin-3, 1 ml into pouch, 4 h, p<0.05, n=4

Substance: galectin-3: Recombinant human galectin-3, a 26 kDa beta-galactoside-binding protein (lectin)
- Increase in number of monocytes in the air pouch over vehicle (saline) [1, 2]: 11.6 times
- Increase in number of neutrophils in the air pouch over vehicle (saline) [1, 2]: 8.21 times
- Number of eosinophils in the air pouch ([1]; 1 μM galectin-3, 4 h, p=0.112): not augmented significantly
- Number of lymphocytes in the air pouch ([1]; 1 μM galectin-3, 4 h, p=0.309): not augmented significantly
- Interaction with chemokine receptor (CCR-5): Neither have interactions between galectin-3 and these four chemokine receptors been detected
